The values below come from patent EP3829564B1, “CURCUMIN AND HOMOTAURINE FOR USE IN PREVENTING OR TREATING COGNITIVE DECLINE FORMS” (ALERE VITAM S.R.L., priority 2018, dated 2020).

The target of one experiment is T1, Aβ42 peptide (Homo sapiens, UniProt P05067).
T1 construct: Beta-amyloid (Aβ 1-42) aggregation studies were conducted; purchased AnaSpec, Inc, Fremont, CA
As to the kind of experiment: Thioflavin-T assay for inhibition of Aβ 42 aggregation. The experiment is classed as biochemical. As for the experimental part:
In the present study, the fluorescence spectroscopy with thioflavin T was used to examine the effects of curcumin (CUR), homotaurine (HOM) taken individually and a combination of the two compounds as disclosed herein on the formation of toxic Aβ aggregates.
Thioflavin-T (Th-T dosage), analysis for the inhibition of the Aβ 42 aggregation (also referred to AB42).
Beta-amyloid (Aβ 1-42) aggregation studies were conducted using the SensoLyte ThT Ab42 aggregation kit (AnaSpec, Inc, Fremont, CA).
The Aβ42 peptide was dissolved in a cold analysis buffer (4 °C) and allowed to hydrate for a few minutes. The solution was centrifuged at 10,000 rpm for 5 minutes at 4°C to centrifuge any precipitated material. The fibrillation reaction was initiated by adding thioflavin dye (ThT) at a concentration of 2 mmol/L.
Three test samples (CUR; HOM; CUR + HOM) were added in a volume of 5 µL and the reaction was started by adding the Aβ42 peptide solution. The final volume of the test samples was 100 µL. At the same time, the positive control and the negative control containing nordihydroguaiaretic acid (NDGA), a well-defined inhibitor of Ab aggregation, at the final concentration of 100 µmol/L were established. Fluorescence intensity was measured at 37°C with Ex/Em ¼ 440 nm/484 nm and by shaking of 15s between readings using the microplate reader (Synergy H1; BioTek, Winooski, VT). The fluorescence intensity measurements expressed as relative fluorescence units (RFU) were taken for 90 minutes at 5-minute intervals.

The subject of the next experiment is Nrf2. As to the kind of experiment: Nrf2 protein expression in nuclear extracts (Western blot). The note with it: 25 µM; for expression of the Nrf2 protein in nuclear extracts: cortical neurons, astrocytes and endothelial cells, over time, three independent Western blots. It is filed as cell-based, rat. As for the experimental part: Three different cell lines, cortical neurons, astrocytes and endothelial cells, were exposed to curcumin, homotaurine or a combination of the two compounds at the final concentration of 25 µM to evaluate the expression of the Nrf2 protein over time.
The rat hippocampal neurons (H 19-7) were purchased by the American Type Culture Collection (Manassas, VA, USA) and cultured according to the manufacturer's instructions.
The neurons were washed twice with 1X PBS. The cells were then collected in 1 ml of 1X PBS and centrifuged at 3000 rpm for 3 min at 4°C. The cell pellet was carefully resuspended in […] of cold buffer containing HEPES 10 mM (pH 7.9), KCI 10 mM, EDTA 0.1 mM, EGTA 0.1 mM, DTT 1 µM and complete protease inhibitor cocktail (Roche, Mannheim, Germany).
The pellet was then incubated on ice for 15 minutes to allow the cells to swell. After this time, 15 µl of 10% of NP-40 were added and the tube was vortexed for 10 s. The homogenate was then centrifuged at 3000 rpm for 3 min at 4°C and the nuclear pellet was resuspended in 30 µl of cold buffer consisting of HEPES 20 mM (pH 7.9), NaCl 0,4 M, EDTA 1 mM, EGTA 1 mM, DTT 1 µM and protease inhibitors. The pellet was then incubated on ice for 15 minutes and vortexed for 10-15 s every 2 minutes. The nuclear extract was finally centrifuged at 13,000 rpm for 5 minutes at 4°C. The supernatant containing the nuclear proteins was resolved with SDS-polyacrylamide gel and subjected to immunoblot analysis using anti-Nrf2 antibodies (dilution 1: 500) and anti-Sp1 (dilution 1: 500).

The test system of the next experiment is heme oxygenase. As to the kind of experiment: Heme oxygenase activity in treated cells. It is filed as cell-based. The note with it: same doses; 6 and 24 hours after administration.
For experiment [1], the system named is HO-1. Particulars: 6 hours; for increase in HO-1 mRNA: 5, 10, 15 and 30 µM, cortical neurons, astrocytes and endothelial cells; for concentration of maximum HO-1 mRNA: tested 5, 10, 15 and 30 µM.
Experimental: (§1) To confirm that the expression of the HO-1 gene measured at the mRNA level corresponded to an equivalent increase in heme oxygenase activity, this activity was measured at the same doses of curcumin and homotaurine 6 and 24 hours after administration.
Experiment [2] has as its system HO-1. As to the kind of experiment: cells. Particulars: 6 h, read-out: maximum increase in HO-1 mRNA, relative to the non-inducible paralogue HO-2 gene.
Experimental: as §1
The next experiment has as its target T2, Aβ42 oligomer (Homo sapiens, UniProt P05067).
T2 construct: prevents the formation and the toxicity of Aβ42 oligomer
Particulars: prior art statement; cited from earlier work.

The target of the next experiment is Aβ40 (Homo sapiens, UniProt P05067). Particulars: compared with ibuprofen and naproxen; cited from earlier work.
In experiment [3] the test system is transgenic Alzheimer's mouse (Tg2576). The note with it: dietary regime containing curcumin for 6 months; cited from earlier work.
Setting [4] is: fibrillation time 30 min and 90 min, vs control.

T1 sequence (P05067 672-713 limits assumed): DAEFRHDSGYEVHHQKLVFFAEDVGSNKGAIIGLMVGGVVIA
Sequence of Aβ40 (P05067 672-711): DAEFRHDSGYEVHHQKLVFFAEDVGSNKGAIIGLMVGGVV
T2 sequence (P05067 672-713): as the sequence (P05067 672-713 limits assumed) above
Experimental for heme oxygenase: as §1

For `CC(Cc1ccc(O)c(O)c1)C(C)Cc1ccc(O)c(O)c1` (centres unmarked) [NDGA, nordihydroguaiaretic acid], the “Aβ aggregation (ThT fluorescence)” value at Aβ42 peptide (100 µmol/L, control inhibitor) is recorded as “inhibitor of the Aβ aggregation (p <.001)”.

`COc1cc(C=CC(=O)CC(=O)C=Cc2ccc(O)c(OC)c2)ccc1O` [curcumin, 1,7-bis [4-Hydroxy-3-methoxyphenyl]-1,6-heptadiene-3,5-dione]: the “time Nrf2 expression remained upregulated” value in the experiment on Nrf2 (after treatment) is “up to 12 hours”. Further, the “expression of the Nrf2 protein in nuclear extracts” value with Nrf2 is on record as “significant timedependent increase”. In addition, in the experiment with heme oxygenase, the heme oxygenase activity entry was “comparable to the results obtained by looking at cellular mRNAs”. Moreover, the “Aβ aggregation (ThT fluorescence)” value at Aβ42 peptide (setting [4]) is “significantly influence the fibrillation reaction”. In the experiment on HO-1 [1], the “increase in HO-1 mRNA” value was “dosedependent increase in HO-1 mRNA” and the “concentration of maximum HO-1 mRNA” value was determined as 15 µM. For the same compound, the maximal fold induction at 15 µM in the experiment on HO-1 [2] is about 6. For the same compound, at Aβ42 oligomer, the “concentration preventing formation and toxicity of Aβ42 oligomer” value is 0.1 to 11.0 µM. In addition, the Aβ40 aggregation inhibition entry at Aβ40 was “better than ibuprofen and naproxen”. Moreover, in experiment [3], the “cognitive deficits induced by Aβ amyloid” value was “reverses the cognitive deficits induced by Aβ amyloid”; the “indices of oxidative damage and inflammation in the brain” value is “suppression of the indices of the oxidative damage and the inflammation in the brain”.

Take `NCCCS(=O)(=O)O` [homotaurine, 3-amino-1-propanesulfonic acid]: the “expression of the Nrf2 protein in nuclear extracts” value in the experiment on Nrf2 was “lower increase in nuclear Nrf2”. The heme oxygenase activity result with heme oxygenase is “comparable to the results obtained by looking at cellular mRNAs”. Also, on Aβ42 peptide (setting [4]), the “Aβ aggregation (ThT fluorescence)” value is given as “significantly influence the fibrillation reaction”. Moreover, in the experiment on HO-1 [1], the “increase in HO-1 mRNA” value was “much less active in inducing the expression of the HO-1 gene” and the “concentration of maximum HO-1 mRNA” value came to 15 µM.
